Laboratory results taken from US7772241B2, “Variolin derivatives and their use as antitumor agents” (Pharma Mar S.A., priority 2001, dated 2010).

Columns and labels:
IGROV-1 = test: Inhibition of cells growth by colorimetric (SRB) assay, IGROV-1; conditions: for GI50 / CC50: Homo sapiens, IGROV-1, 48 h; for GI50: read-out: GI50 IGROV, SRB assay, 48 hours exposure; for CC50: read-out: LC50 IGROV, SRB assay, 48 hours exposure; for TGI IGROV: SRB assay, 48 hours exposure
Summary of the method: (§1)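 Human tumour cells in RPMI 1640 with 10% FBS were seeded at 5×10^3 cells/well, allowed to attach for 18 h, then exposed to samples at 10 to 10^−8 μg/ml for 48 h. Growth was measured by SRB staining after TCA fixation, with absorbance read at 490 nm in triplicate wells.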

A-549 = test: Inhibition of cells growth by colorimetric (SRB) assay, A-549; conditions: for GI50 / CC50: Homo sapiens, A549, 48 h; for GI50: read-out: GI50 A-549, SRB assay, 48 hours exposure; for CC50: read-out: LC50 A-549, SRB assay, 48 hours exposure; for TGI A-549: SRB assay, 48 hours exposure
Summary of the method: as §1

LoVo-Dox = test: Inhibition of cells growth by colorimetric (SRB) assay, LoVo-Dox; conditions: for GI50 / CC50: Homo sapiens, 48 h; for GI50: read-out: GI50 LOVO-DOX, SRB assay, 48 hours exposure; for CC50: read-out: LC50 LOVO-DOX, SRB assay, 48 hours exposure; for TGI LOVO-DOX: SRB assay, 48 hours exposure
Summary of the method: as §1

SK-BR-3 = test: Inhibition of cells growth by colorimetric (SRB) assay, SK-BR-3; conditions: for GI50 / CC50: Homo sapiens, SK-BR-3, 48 h; for GI50: read-out: GI50 SK-BR-3, SRB assay, 48 hours exposure; for CC50: read-out: LC50 SK-BR-3, SRB assay, 48 hours exposure; for TGI SK-BR-3: SRB assay, 48 hours exposure
Description: The finality of these assays is to interrupt the growth of a “in vitro” tumor cell culture by means a continued exhibition of the cells to the sample to be testing.
This form of the assay employs 96 well cell culture microplates of 9 mm diameter (Faircloth, 1988; Mosmann, 1983). Most of the cell lines are obtained from American Type Culture Collection (ATCC) derived from different human cancer types.
Cells are maintained in RPMI 1640 10% FBS, supplemented with 0.1 g/l penicillin and 0.1 g/l streptomycin sulphate and then incubated at 37° C., 5% CO2 and 98% humidity. For the experiments, cells were harvested from subconfluent cultures using trypsin and resuspended in fresh medium before plating.
Cells are seeded in 96 well microtiter plates, at 5×10^3 cells per well in aliquots of 195 μl medium, and they are allowed to attach to the plate surface by growing in drug free medium for 18 hours. Afterward, samples are added in aliquots of 5 μl in a ranging from 10 to 10^−8 μg/ml, dissolved in DMSO/EtOH/PBS (0.5:0.5:99). After 48 hours exposure, the antitumor effect are measured by the SRB methodology: cells are fixed by adding 50 μl of cold 50% (wt/vol) trichloroacetic acid (TCA) and incubating for 60 minutes at 4° C. Plates are washed with deionized water and dried. One hundred μl of SRB solution (0.4% wt/vol in 1% acetic acid) is added to each microtiter well and incubated for 10 minutes at room temperature. Unbound SRB is removed by washing with 1% acetic acid. Plates are air dried and bound stain is solubilized with Tris buffer. Optical densities are read on a automated spectrophotometric plate reader at a single wavelength of 490 nm.
The values for mean +/−SD of data from triplicate wells are calculated. Some parameters for cellular responses can be calculated: GI=growth inhibition, TGI=total growth inhibition (cytostatic effect) and LC=cell killing (cytotoxic effect).

LNCaP = test: Inhibition of cells growth by colorimetric (SRB) assay, LNCaP; conditions: for GI50 / CC50: Homo sapiens, LNCaP, 48 h; for GI50: read-out: GI50 LN-caP, SRB assay, 48 hours exposure; for CC50: read-out: LC50 LN-caP, SRB assay, 48 hours exposure; for TGI LN-caP: SRB assay, 48 hours exposure
Summary of the method: as §1

PANC-1 = test: Inhibition of cells growth by colorimetric (SRB) assay, PANC-1; conditions: for GI50 / CC50: Homo sapiens, PANC-1, 48 h; for GI50: read-out: GI50 PANC-1, SRB assay, 48 hours exposure; for CC50: read-out: LC50 PANC-1, SRB assay, 48 hours exposure; for TGI PANC-1: SRB assay, 48 hours exposure
Summary of the method: as §1

DU-145 = test: Inhibition of cells growth by colorimetric (SRB) assay, DU-145; conditions: for GI50 / CC50: Homo sapiens, DU-145, 48 h; for GI50: read-out: GI50 DU-145, SRB assay, 48 hours exposure; for CC50: read-out: LC50 DU-145, SRB assay, 48 hours exposure; for TGI DU-145: SRB assay, 48 hours exposure
Summary of the method: as §1

SK-MEL-28 = test: Inhibition of cells growth by colorimetric (SRB) assay, SK-MEL-28; conditions: for GI50 / CC50: Homo sapiens, SK-MEL-28, 48 h; for GI50: read-out: GI50 MEL-28, SRB assay, 48 hours exposure; for CC50: read-out: LC50 MEL-28, SRB assay, 48 hours exposure; for TGI MEL-28: SRB assay, 48 hours exposure
Summary of the method: as §1

SK-OV-3 = test: Inhibition of cells growth by colorimetric (SRB) assay, SK-OV-3; conditions: for GI50 / CC50: Homo sapiens, SK-OV-3, 48 h; for GI50: read-out: GI50 SKOV-3, SRB assay, 48 hours exposure; for CC50: read-out: LC50 SKOV-3, SRB assay, 48 hours exposure; for TGI SKOV-3: SRB assay, 48 hours exposure
Summary of the method: as §1

K-562 = test: Inhibition of cells growth by colorimetric (SRB) assay, K-562; conditions: for GI50 / CC50: Homo sapiens, K562, 48 h; for GI50: read-out: GI50 K-562, SRB assay, 48 hours exposure; for CC50: read-out: LC50 K-562, SRB assay, 48 hours exposure; for TGI K-562: SRB assay, 48 hours exposure
Summary of the method: as §1

IGROV-ET = test: Inhibition of cells growth by colorimetric (SRB) assay, IGROV-ET; conditions: for GI50 / CC50: Homo sapiens, 48 h; for GI50: read-out: GI50 IGROV-ET, SRB assay, 48 hours exposure; for CC50: read-out: LC50 IGROV-ET, SRB assay, 48 hours exposure; for TGI IGROV-ET: SRB assay, 48 hours exposure
Summary of the method: as §1

HT-29 = test: Inhibition of cells growth by colorimetric (SRB) assay, HT-29; conditions: for GI50 / CC50: Homo sapiens, HT-29, 48 h; for GI50: read-out: GI50 HT-29, SRB assay, 48 hours exposure; for CC50: read-out: LC50 HT-29, SRB assay, 48 hours exposure; for TGI HT-29: SRB assay, 48 hours exposure
Summary of the method: as §1

LoVo = test: Inhibition of cells growth by colorimetric (SRB) assay, LoVo; conditions: for GI50 / CC50: Homo sapiens, LoVo, 48 h; for GI50: read-out: GI50 LOVO, SRB assay, 48 hours exposure; for CC50: read-out: LC50 LOVO, SRB assay, 48 hours exposure; for TGI LOVO: SRB assay, 48 hours exposure
Summary of the method: as §1

SMILES | GI50 (IGROV-1) [µM] | CC50 (IGROV-1) [µM] | TGI IGROV (IGROV-1) | GI50 (A-549) [µM] | CC50 (A-549) [µM] | TGI A-549 (A-549) | GI50 (LoVo-Dox) [µM] | CC50 (LoVo-Dox) [µM] | TGI LOVO-DOX (LoVo-Dox) | GI50 (SK-BR-3) [µM] | CC50 (SK-BR-3) [µM] | TGI SK-BR-3 (SK-BR-3) | GI50 (LNCaP) [µM] | CC50 (LNCaP) [µM] | TGI LN-caP (LNCaP) | GI50 (PANC-1) [µM] | CC50 (PANC-1) [µM] | TGI PANC-1 (PANC-1) | GI50 (DU-145) [µM] | CC50 (DU-145) [µM] | also measured
COc1nccc(-c2c3c(O)ccnc3n3c(N)nccc23)n1 [Compound 105] | 6.26 | 27.5 | 1.31E−05 | 7.49 | 32.4 | 3.24E−05 | 21.9 | 32.4 | 3.24E−05 | 2.42 | 32.4 | 1.26E−05 | 5.48 | 32.4 | 1.75E−05 | 11.8 | 32.4 | 3.24E−05 | 14.2 | 32.4 | TGI DU-145 (DU-145): 3.24E−05; GI50 (SK-MEL-28): 13.8 µM; CC50 (SK-MEL-28): 32.4 µM; TGI MEL-28 (SK-MEL-28): 3.24E−05; GI50 (SK-OV-3): 8.14 µM; CC50 (SK-OV-3): 32.4 µM; TGI SKOV-3 (SK-OV-3): 2.91E−05; GI50 (K-562): 12.8 µM; CC50 (K-562): 32.4 µM; TGI K-562 (K-562): 2.93E−05; GI50 (IGROV-ET): 8.17 µM; CC50 (IGROV-ET): 32.4 µM; TGI IGROV-ET (IGROV-ET): 2.23E−05; GI50 (HT-29): 32.4 µM; CC50 (HT-29): 32.4 µM; TGI HT-29 (HT-29): 3.24E−05; GI50 (LoVo): 14.3 µM; CC50 (LoVo): 32.4 µM; TGI LOVO (LoVo): 3.24E−05
CSc1nccc(-c2c3cccnc3n3ccccc23)n1 [Compound 55] | 7.42 | ≥ 34.2 | 1.53E−05 | 7.29 | ≥ 34.2 | 1.90E−05 | 3.93 | 26.4 | 1.02E−05 | 8.82 | ≥ 34.2 | 2.32E−05 | 6.84 | ≥ 34.2 | 1.55E−05 | 8.79 | ≥ 34.2 | 2.91E−05 | 11.4 | ≥ 34.2 | TGI DU-145 (DU-145): 3.38E−05; GI50 (SK-MEL-28): 11.6 µM; CC50 (SK-MEL-28): ≥ 34.2 µM; TGI MEL-28 (SK-MEL-28): 3.20E−05; GI50 (SK-OV-3): 7.73 µM; CC50 (SK-OV-3): ≥ 34.2 µM; TGI SKOV-3 (SK-OV-3): 2.09E−05; GI50 (K-562): 9.71 µM; CC50 (K-562): ≥ 34.2 µM; TGI K-562 (K-562): 1.83E−05; GI50 (IGROV-ET): 8.79 µM; CC50 (IGROV-ET): ≥ 34.2 µM; TGI IGROV-ET (IGROV-ET): 2.00E−05; GI50 (HT-29): 13.2 µM; CC50 (HT-29): ≥ 34.2 µM; TGI HT-29 (HT-29): 3.42E−05; GI50 (LoVo): 9.92 µM; CC50 (LoVo): ≥ 34.2 µM; TGI LOVO (LoVo): 3.42E−05
COc1ccc2nc3c(cc2c1)c(-c1ccnc(N)n1)c1ccnc(N)n13 [Compound 19b] | 4.11 | 19.4 | 8.93E−06 | 0.453 | 28 | 2.80E−05 | 7.42 | 28 | 2.10E−05 | 1.89 | 28 | 8.23E−06 | 2.36 | 27.6 | 8.59E−06 | 8.87 | 28 | 2.80E−05 | 5.79 | 28 | TGI DU-145 (DU-145): 2.39E−05; GI50 (SK-MEL-28): 4.92 µM; CC50 (SK-MEL-28): 28 µM; TGI MEL-28 (SK-MEL-28): 1.65E−05; GI50 (SK-OV-3): 8.28 µM; CC50 (SK-OV-3): 28 µM; TGI SKOV-3 (SK-OV-3): 1.89E−05; GI50 (K-562): 8.48 µM; CC50 (K-562): 28 µM; TGI K-562 (K-562): 1.59E−05; GI50 (IGROV-ET): 3.27 µM; CC50 (IGROV-ET): 20.4 µM; TGI IGROV-ET (IGROV-ET): 8.17E−06; GI50 (HT-29): 15.2 µM; CC50 (HT-29): 28 µM; TGI HT-29 (HT-29): 2.80E−05; GI50 (LoVo): 3.25 µM; CC50 (LoVo): 28 µM; TGI LOVO (LoVo): 1.97E−05
